Assay results from patent US20030161862A1, “Bacterial growth regulators or inhibitors with the use of 1,5-d-anhydrofructose” (priority 2000, published 2003).

What was measured:
Assay type in all cases: cell-based
[1] = test system: Pseudomonas aeruginosa IFO 12689; experiment: growth suppression/inhibition on agar media, colonies observed visually; conditions: agar medium pH 6.5, 37° C. one night; 1,5-D-anhydrofructose 1%, sodium citrate 0.5%, sodium polyphosphate 0.2%, sodium malate 0.5%, sodium gluconate 0.5%, sodium tartrate 0.5%, sodium ascorbate 1%, sodium erythorbate 0.2%
Text: (§1) Under the circumstances, influences on growth of a variety of bacteria in the presence of 1,5-D-anhydrofructose with or without sodium ascorbate which is a typical antioxidant to be used in food and beverages were examined.
(§2) After the bacterial strains were suspended in physiological salt solutions, they were inoculated into agar media (each containing 0.25% of yeast extract, 0.5% of polypeptone, 1.0% of glucose and 1.5% of soft agar and having a pH of 6.5) with platinum loops and then cultured at 37° C. until colonies were formed. Thereafter, the bacteria were inoculated, with sterilized toothpicks, from the colonies into agar media of the above composition each of which contained 1.0% of sodium ascorbate and 1.0% of 1,5-D-anhydrofructose, and into agar media of the above composition each of which contained 1.0% of 1,5-D-anhydrofructose and no sodium ascorbate. For controls, culture media of the same composition each of which contained neither sodium ascorbate nor 1,5-D-anhydrofructose and culture media of the same composition each of which contained 1.0% of sodium ascorbate and no 1,5-D-anhydrofructose were used. Abilities of sodium ascorbate and 1,5-D-anhydrofructose to suppress/inhibit growth of the bacteria were evaluated by visually observing the colonies formed after the bacteria were cultured at 37° C. for one night.
(§3) The substances were used at concentrations shown in the legend of Table 4.
(§4) Those cultured in the absence of the chelating agents, 1,5-D-anhydrofructose, sodium ascorbate and sodium erythorbate were taken as controls. As for an agar medium, a method for inoculating the bacteria, conditions for culturing the bacteria, and a method for evaluating a growth suppressing/inhibiting ability, they are the same as those used in the tests whose results are shown in Tables 2 and 3.

[2] = test system: Enterobactor cloacae JCM 1232; experiment: as above; conditions: agar medium pH 6.5, 37° C. one night; 1,5-D-anhydrofructose 1%, sodium citrate 0.5%, sodium polyphosphate 0.2%, sodium malate 0.5%, sodium gluconate 0.5%, sodium tartrate 0.5%, sodium ascorbate 1%, sodium erythorbate 0.2%
Text: as §1, §2, §3, §4

[3] = test system: Streptococcus eqinus ATCC 9812; experiment: as above; conditions: agar medium pH 6.5, 37° C. one night; 1,5-D-anhydrofructose 1%, sodium citrate 0.5%, sodium polyphosphate 0.2%, sodium malate 0.5%, sodium gluconate 0.5%, sodium tartrate 0.5%, sodium ascorbate 1%, sodium erythorbate 0.2%
Text: as §1, §2, §3, §4

[4] = test system: Bacillus subtillis IFO 3009; experiment: as above; conditions: agar medium pH 6.5, 37° C. one night; 1,5-D-anhydrofructose 1%, sodium citrate 0.5%, sodium polyphosphate 0.2%, sodium malate 0.5%, sodium gluconate 0.5%, sodium tartrate 0.5%, sodium ascorbate 1%, sodium erythorbate 0.2%
Text: as §1, §2, §3, §4

[5] = test system: Proteus vulgaris IFO 3851; experiment: as above; conditions: agar medium pH 6.5, 37° C. one night; 1,5-D-anhydrofructose 1%, sodium citrate 0.5%, sodium polyphosphate 0.2%, sodium malate 0.5%, sodium gluconate 0.5%, sodium tartrate 0.5%, sodium ascorbate 1%, sodium erythorbate 0.2%
Description: as §1
as §2, with “[…])” for “1.0% of glucose and 1.5% of soft agar and having a pH of 6.5)”
as §3, §4

[6] = test system: Escherichia coli IFO 3301; experiment: as above; conditions: agar medium pH 6.5, 37° C. one night; 1,5-D-anhydrofructose 1%, sodium citrate 0.5%, sodium polyphosphate 0.2%, sodium malate 0.5%, sodium gluconate 0.5%, sodium tartrate 0.5%, sodium ascorbate 1%, sodium erythorbate 0.2%
Description: as §1
as §2, with “[…])” for “1.0% of glucose and 1.5% of soft agar and having a pH of 6.5)”
as §3, §4

[7] = test system: Lactobacillus casei ATCC 393; experiment: as above; conditions: agar medium pH 6.5, 37° C. one night; 1,5-D-anhydrofructose 1%, sodium citrate 0.5%, sodium polyphosphate 0.2%, sodium malate 0.5%, sodium gluconate 0.5%, sodium tartrate 0.5%, sodium ascorbate 1%, sodium erythorbate 0.2%
Description: as §1
as §2, with “[…])” for “1.0% of glucose and 1.5% of soft agar and having a pH of 6.5)”
as §3, §4

Bacillus cereus IFO 3131 = experiment: as above; conditions: agar medium pH 6.5, 37° C. one night; 1,5-D-anhydrofructose 1%, sodium citrate 0.5%, sodium polyphosphate 0.2%, sodium malate 0.5%, sodium gluconate 0.5%, sodium tartrate 0.5%, sodium ascorbate 1%, sodium erythorbate 0.2%
Description: as §1
as §2, with “[…])” for “1.0% of glucose and 1.5% of soft agar and having a pH of 6.5)”
as §3, §4

[8] = test system: a variety of bacteria (strains of Table 1); experiment: growth suppression on agar media, summary statements for all tested bacteria; conditions: co-presence with 1,5-D-anhydrofructose; no data shown
Description: When a variety of bacteria are cultured in agar media in the presence of 1,5-D-anhydrofructose without any of an antioxidant or a chelating agent, a minimum growth inhibitory concentration of 1,5-D-anhydrofructose is 3.0 to 5.0% for gram-negative bacteria and 1.0 to 3.0% for gram-positive bacteria. Under the circumstances, influences on growth of a variety of bacteria in the presence of 1,5-D-anhydrofructose with or without sodium ascorbate which is a typical antioxidant to be used in food and beverages were examined.
as §2, §4

Row | Compound | condition of the colonies [1] | condition of the colonies [2] | condition of the colonies [3] | condition of the colonies [4] | condition of the colonies [5] | condition of the colonies [6] | condition of the colonies [7] | condition of the colonies (Bacillus cereus IFO 3131) | effect of enhancing the growth suppressing effect of 1,5-D-anhydrofructose [8]
1 | O=C([O-])[C@H](O)[C@@H](O)[C@H](O)[C@H](O)CO.[Na+] [sodium gluconate] | + | + | + | + | + | + | + | + | 
2 | O=C([O-])CC(O)C(=O)[O-].[Na+].[Na+] (stereo not shown) [sodium malate] | + | + | + | + | + | + | + | + | 
3 | O=C([O-])C(O)C(O)C(=O)[O-].[Na+].[Na+] (stereo not shown) [sodium tartrate] | + | + | + | + | + | + | + | + | 
4 | catechin |  |  |  |  |  |  |  |  | exhibit the above effect
5 | sodium polyphosphate | + | + | + | + | + | + | + | + | 
6 | tocopherol |  |  |  |  |  |  |  |  | exhibit the above effect
